Patent US10758534B2 (Vertex Pharmaceuticals Incorporated, priority 2014, dated 2020)

Molecular target: T1, F508del (Homo sapiens, UniProt P13569, DEL508-508)
T1 construct: expressed in transfected cells
Experiment: Protocol 1: membrane potential optical assay (FLIPR III, voltage sensing dye), identification of potentiator compounds
Assay type: cell-based
Settings: Table 3, compounds of Table 1
In short: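 Mouse NIH 3T3 fibroblasts stably expressing F508del, temperature-corrected at 27 °C for 24 h, pretreated with compound, then loaded with voltage-sensing redistribution dye. Forskolin was added in a single step with a chloride gradient (chloride-free gluconate bath; Bath Solution #1 HEPES pH 7.4). Membrane-potential fluorescence read on FLIPR III.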

T1 sequence (P13569 with tags, fused parts or gaps DEL508-508): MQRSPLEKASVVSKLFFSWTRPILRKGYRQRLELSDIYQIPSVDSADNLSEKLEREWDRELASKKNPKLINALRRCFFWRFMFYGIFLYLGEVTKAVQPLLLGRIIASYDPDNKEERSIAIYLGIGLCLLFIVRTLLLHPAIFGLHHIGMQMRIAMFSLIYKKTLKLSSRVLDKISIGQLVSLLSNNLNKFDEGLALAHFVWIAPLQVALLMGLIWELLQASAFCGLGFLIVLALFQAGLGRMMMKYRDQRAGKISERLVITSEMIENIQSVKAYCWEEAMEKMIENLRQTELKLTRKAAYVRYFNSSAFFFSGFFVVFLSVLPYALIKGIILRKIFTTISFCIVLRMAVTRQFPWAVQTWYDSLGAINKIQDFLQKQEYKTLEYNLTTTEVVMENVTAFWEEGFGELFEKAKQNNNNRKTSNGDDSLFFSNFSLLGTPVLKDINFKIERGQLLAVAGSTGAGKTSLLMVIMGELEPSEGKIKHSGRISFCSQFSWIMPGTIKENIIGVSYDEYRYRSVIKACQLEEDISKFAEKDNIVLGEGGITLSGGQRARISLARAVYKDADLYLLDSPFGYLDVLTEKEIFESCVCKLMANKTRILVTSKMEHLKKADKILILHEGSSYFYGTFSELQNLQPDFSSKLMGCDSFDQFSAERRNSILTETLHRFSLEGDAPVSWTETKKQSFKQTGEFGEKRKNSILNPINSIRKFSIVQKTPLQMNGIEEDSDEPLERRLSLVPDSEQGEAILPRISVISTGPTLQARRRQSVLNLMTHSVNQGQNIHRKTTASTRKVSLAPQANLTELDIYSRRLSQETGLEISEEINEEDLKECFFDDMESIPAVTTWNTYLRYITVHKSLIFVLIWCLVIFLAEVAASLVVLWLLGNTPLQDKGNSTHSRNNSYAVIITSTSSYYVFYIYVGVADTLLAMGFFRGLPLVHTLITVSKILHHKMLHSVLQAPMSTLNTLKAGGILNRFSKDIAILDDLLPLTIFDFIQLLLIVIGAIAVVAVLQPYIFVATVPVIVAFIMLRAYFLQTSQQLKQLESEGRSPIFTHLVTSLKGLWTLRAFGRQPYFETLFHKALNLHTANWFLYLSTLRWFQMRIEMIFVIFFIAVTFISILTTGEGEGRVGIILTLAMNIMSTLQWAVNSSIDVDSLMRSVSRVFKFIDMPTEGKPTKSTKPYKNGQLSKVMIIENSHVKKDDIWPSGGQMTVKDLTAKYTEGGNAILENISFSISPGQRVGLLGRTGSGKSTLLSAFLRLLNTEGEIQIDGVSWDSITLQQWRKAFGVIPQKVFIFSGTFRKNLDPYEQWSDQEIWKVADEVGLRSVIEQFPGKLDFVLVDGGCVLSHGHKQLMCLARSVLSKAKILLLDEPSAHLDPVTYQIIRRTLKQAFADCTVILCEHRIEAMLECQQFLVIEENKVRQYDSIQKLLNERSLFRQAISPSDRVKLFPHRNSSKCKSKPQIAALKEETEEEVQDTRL

SMILES | EC30
CC(C)Oc1ccc(-c2ccc(C(=O)NS(=O)(=O)c3cccc(N)n3)c(N3CCC(F)CC3)n2)cn1 [Compound 913, N-[(6-amino-2-pyridyl)sulfonyl]-2-(4-fluoro-1-piperidyl)-6-(6-isopropoxy-3-pyridyl)pyridine-3-carboxamide] | ++ (“++” means between 3 uM and 10 uM)
CC(C)Oc1ccc(-c2ccc(C(=O)NS(=O)(=O)c3cccc(N)n3)c(N3CC(C)(C)CC3(C)C)n2)cn1 [Compound 915, N-[(6-amino-2-pyridyl)sulfonyl]-6-(6-isopropoxy-3-pyridyl)-2-(2,2,4,4-tetramethylpyrrolidin-1-yl)pyridine-3-carboxamide] | +++ (“+++” means <3 uM)
Cc1cc(C)c(Oc2nc(C(C)(C)C)ccc2C(=O)NS(=O)(=O)c2cccc(NCCO)n2)c(C)c1 [Compound 916, 6-tert-butyl-N-[[6-(2-hydroxyethylamino)-2-pyridyl]sulfonyl]-2-(2,4,6-trimethylphenoxy)pyridine-3-carboxamide] | +++ (“+++” means <3 uM)
Cc1cc(C)c(CN2c3ccccc3C[C@@H]2C(=O)NS(=O)(=O)c2ccccc2)c(C)c1 [Compound 918, (2R)—N-(benzenesulfonyl)-1-[(2,4,6-trimethylphenyl)methyl]indoline-2-carboxamide] | +++ (“+++” means <3 uM)
CC(C)Oc1ccc(-c2ccc(C(=O)NS(=O)(=O)c3cccc(N)n3)c(N3C[C@H]4CC[C@@H]3C4)n2)cn1 [Compound 921, N-[(6-amino-2-pyridyl)sulfonyl]-2-[(1S,4R)-3-azabicyclo[2.2.1]heptan-3-yl]-6-(6-isopropoxy-3-pyridyl)pyridine-3-carboxamide] | ++ (“++” means between 3 uM and 10 uM)
C[C@@H]1CC[C@H](C)N1c1nc(-c2cc(F)cc(OCC3CCC3)c2)ccc1C(=O)NS(=O)(=O)c1ccc[nH]c1=O [Compound 922, 6-[3-(cyclobutylmethoxy)-5-fluoro-phenyl]-2-[(2S,5R)-2,5-dimethylpyrrolidin-1-yl]-N-[(2-oxo-1H-pyridin-3-yl)sulfonyl]pyridine-3-carboxamide] | +++ (“+++” means <3 uM)
CC(C)COc1cc(F)cc(-c2ccc(C(=O)NS(=O)(=O)c3cccc(N)n3)c(N3C[C@H]4CC[C@@H]3C4)n2)c1 [Compound 924, N-[(6-amino-2-pyridyl)sulfonyl]-2-[(1S,4R)-3-azabicyclo[2.2.1]heptan-3-yl]-6-(3-fluoro-5-isobutoxy-phenyl)pyridine-3-carboxamide] | +++ (“+++” means <3 uM)
CC(C)Oc1ccc(-c2ccc(C(=O)NS(=O)(=O)c3cccc(N)n3)c(N3C(C)CC(C)C3C)n2)cn1 (stereo not drawn) [Compound 925, N-[(6-amino-2-pyridyl)sulfonyl]-6-(6-isopropoxy-3-pyridyl)-2-(2,3,5-trimethylpyrrolidin-1-yl)pyridine-3-carboxamide] | +++ (“+++” means <3 uM)
CC(C)COc1cc(F)cc(-c2ccc(C(=O)NS(=O)(=O)c3cccc(N)n3)c(N3CCCC34CCCC4)n2)c1 [Compound 926, N-[(6-amino-2-pyridyl)sulfonyl]-2-(9-azaspiro[4.4]nonan-9-yl)-6-(3-fluoro-5-isobutoxy-phenyl)pyridine-3-carboxamide] | +++ (“+++” means <3 uM)
Cn1ccc2c(Cn3nc(C(C)(C)C)cc3C(=O)NS(=O)(=O)c3cccc(N)c3)cccc21 [Compound 927, N-(3-aminophenyl)sulfonyl-5-tert-butyl-2-[(1-methylindol-4-yl)methyl]pyrazole-3-carboxamide] | ++ (“++” means between 3 uM and 10 uM)
CC(C)Oc1ccc(-c2ccc(C(=O)NS(=O)(=O)c3cccc(N)n3)c(N3CCCC3C3CC3)n2)cn1 (stereo not drawn) [Compound 928, N-[(6-amino-2-pyridyl)sulfonyl]-2-(2-cyclopropylpyrrolidin-1-yl)-6-(6-isopropoxy-3-pyridyl)pyridine-3-carboxamide] | +++ (“+++” means <3 uM)
CCC1CCN(c2nc(-c3cc(F)cc(OCC(C)C)c3)ccc2C(=O)NS(=O)(=O)c2cccc(N)n2)C1 (stereo not drawn) [Compound 931, N-[(6-amino-2-pyridyl)sulfonyl]-2-(3-ethylpyrrolidin-1-yl)-6-(3-fluoro-5-isobutoxy-phenyl)pyridine-3-carboxamide] | +++ (“+++” means <3 uM)
CC(C)COc1cc(F)cc(-c2ccc(C(=O)NS(=O)(=O)c3cccc(N)n3)c(OCC3CCOCC3)n2)c1 [Compound 933, N-[(6-amino-2-pyridyl)sulfonyl]-6-(3-fluoro-5-isobutoxy-phenyl)-2-(tetrahydropyran-4-ylmethoxy)pyridine-3-carboxamide] | +++ (“+++” means <3 uM)

Other lines, results leading:

EC30 | SMILES
+++ (“+++” means <3 uM) | Cc1cc(C)c(Oc2nc(-c3cc(F)cc(OC(C)C)c3)ccc2C(=O)NS(=O)(=O)c2cc[nH]n2)c(C)c1 [Compound 914, 6-(3-fluoro-5-isopropoxy-phenyl)-N-(1H-pyrazol-3-ylsulfonyl)-2-(2,4,6-trimethylphenoxy)pyridine-3-carboxamide]
++ (“++” means between 3 uM and 10 uM) | CCOc1cc(-c2ccc(C(=O)NS(=O)(=O)c3ccc[nH]c3=O)c(Oc3c(C)cc(C)cc3C)n2)ccc1F [Compound 917, 6-(3-ethoxy-4-fluoro-phenyl)-N-[(2-oxo-1H-pyridin-3-yl)sulfonyl]-2-(2,4,6-trimethylphenoxy)pyridine-3-carboxamide]
+++ (“+++” means <3 uM) | COc1cc(-c2ccc(C(=O)NS(=O)(=O)c3cccc(N)n3)c(Oc3c(C)cc(C)cc3C)n2)ccc1F [Compound 919, N-[(6-amino-2-pyridyl)sulfonyl]-6-(4-fluoro-3-methoxy-phenyl)-2-(2,4,6-trimethylphenoxy)pyridine-3-carboxamide]
+++ (“+++” means <3 uM) | COc1cccc(F)c1-c1ccc(C(=O)NS(=O)(=O)c2cccc(N)n2)c(Oc2c(C)cc(C)cc2C)n1 [Compound 920, N-[(6-amino-2-pyridyl)sulfonyl]-6-(2-fluoro-6-methoxy-phenyl)-2-(2,4,6-trimethylphenoxy)pyridine-3-carboxamide]
+++ (“+++” means <3 uM) | COc1cc(-c2ccc(C(=O)NS(=O)(=O)c3cccc(N)n3)c(Oc3c(C)cc(C)cc3C)n2)ccc1C#N [Compound 923, N-[(6-amino-2-pyridyl)sulfonyl]-6-(4-cyano-3-methoxy-phenyl)-2-(2,4,6-trimethylphenoxy)pyridine-3-carboxamide]
++ (“++” means between 3 uM and 10 uM) | CCOCCc1ccc(C(=O)NS(=O)(=O)c2cccc(N)n2)c(Oc2c(C)cc(C)cc2C)n1 [Compound 929, N-[(6-amino-2-pyridyl)sulfonyl]-6-(2-ethoxyethyl)-2-(2,4,6-trimethylphenoxy)pyridine-3-carboxamide]
++ (“++” means between 3 uM and 10 uM) | COc1ncc(-c2ccc(C(=O)NS(=O)(=O)c3ccc[nH]c3=O)c(Oc3c(C)cc(C)cc3C)n2)cc1C [Compound 930, 6-(6-methoxy-5-methyl-3-pyridyl)-N-[(2-oxo-1H-pyridin-3-yl)sulfonyl]-2-(2,4,6-trimethylphenoxy)pyridine-3-carboxamide]
+ (“+” means greater than 10 uM) | CCOc1ccc(-c2ccc(C(=O)NS(=O)(=O)c3ccc[nH]c3=O)c(Oc3c(C)cc(C)cc3C)n2)cn1 [Compound 932, 6-(6-ethoxy-3-pyridyl)-N-[(2-oxo-1H-pyridin-3-yl)sulfonyl]-2-(2,4,6-trimethylphenoxy)pyridine-3-carboxamide]
